Assay [1] in a line: Superoxide scavenging assay (pyrogallol autoxidation). The note with it: for Superoxide scavenging potency relative to ascorbic acid: folds of ascorbic acid; for Superoxide IC50: mean ± SEM of three experiments, pyrogallol autoxidation, 325 nm.
A further assay concerns the target T1, Soybean 15-LOX enzyme (Glycine max, UniProt P08170).
T1 construct: purchased Cayman Chemical 760700
T1 sequence (P08170 1-839): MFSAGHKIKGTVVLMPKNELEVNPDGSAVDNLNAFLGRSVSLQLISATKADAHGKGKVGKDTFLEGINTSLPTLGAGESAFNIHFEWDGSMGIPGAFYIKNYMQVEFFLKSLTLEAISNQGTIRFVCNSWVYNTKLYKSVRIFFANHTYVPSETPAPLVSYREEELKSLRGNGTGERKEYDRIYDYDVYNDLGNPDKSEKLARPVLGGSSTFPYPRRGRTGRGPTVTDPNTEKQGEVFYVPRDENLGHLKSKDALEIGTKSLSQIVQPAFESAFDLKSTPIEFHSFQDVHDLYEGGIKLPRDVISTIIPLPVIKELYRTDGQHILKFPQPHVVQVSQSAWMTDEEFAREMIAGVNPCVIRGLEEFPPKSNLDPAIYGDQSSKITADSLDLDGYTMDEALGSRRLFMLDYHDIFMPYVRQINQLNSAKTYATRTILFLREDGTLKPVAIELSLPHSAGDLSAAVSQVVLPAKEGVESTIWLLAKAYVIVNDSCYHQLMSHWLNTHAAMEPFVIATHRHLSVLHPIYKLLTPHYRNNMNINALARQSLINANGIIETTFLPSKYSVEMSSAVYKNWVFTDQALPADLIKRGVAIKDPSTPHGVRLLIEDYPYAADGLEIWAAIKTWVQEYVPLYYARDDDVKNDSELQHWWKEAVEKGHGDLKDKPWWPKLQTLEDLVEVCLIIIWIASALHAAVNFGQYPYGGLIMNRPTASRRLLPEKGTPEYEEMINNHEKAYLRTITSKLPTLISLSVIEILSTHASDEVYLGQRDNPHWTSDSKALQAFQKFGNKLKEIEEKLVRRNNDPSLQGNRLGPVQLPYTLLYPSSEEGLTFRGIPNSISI
Kind of assay: In vitro lipoxygenase inhibition (Cayman lipoxygenase inhibitor screening assay kit). Type of assay: biochemical. Conditions: for IC50: mean ± SEM of three experiments, substrate arachidonic acid; for 15-LOX inhibition potency relative to quercetin: folds that of quercetin. The protocol: The assay was performed using Cayman’s lipoxygenase inhibitor screening assay kit (Catalog No. 760700, Cayman Chemical, USA) according to the manufacturer’s instructions. Briefly, 90 µL of 15-LOX was pipetted into a 96-well plate. Next, 10 µL of test compound at concentrations (2.5, 5.0 and 10 µM) dissolved in DMSO were added to each well. The reaction was initiated by adding 10 µL substrate (AA) and the plate was placed on a shaker for at least 5 minutes. Finally, 100 µL of chromogen (prepared according to manufacturer’s instructions) was added to each well to stop enzyme catalysis and develop the reaction. 100 µL of Assay buffer (0.1 M Tris-HCl, pH7.4) was used in blank wells. […] The absorbance of the solution was measured at λ 490–500 nm. The percentage inhibition was calculated according to the following equation: % inhibition =[(IA−Ainhibitor sample)/IA]×100 where (IA) is the 100% initial activity and (Ainhibitor sample) is the absorbance of the test sample. Dose–response curve was plotted between % inhibition and the drug concentration. The non-linear dose–response curve was used for calculating drug concentration showing 50% enzyme inhibition.

As a reminder, the IC50 is the concentration that gives 50% inhibition. Higher therefore signals lower potency. Regarding `c1ccc(C2=NNC(c3cn(-c4ccccc4)nc3-c3ccc4ccccc4c3)C2)cc1` (stereo not drawn) [Compound 3a, 3′-Naphthalen-2-yl-5,1′-diphenyl-3,4-dihydro-2H,1’H-[3,4′]bipyrazole], in assay [1], the “Superoxide scavenging potency relative to ascorbic acid” value is 2.5 folds and the “Superoxide IC50” value was 50.42 ± 1.45 µg/mL. Also, at Soybean 15-LOX enzyme, it took 2230 ± 70 nM to reach half-maximal inhibition (IC50).
For the compound `Clc1ccc(C2=NN(c3ccccc3)C(c3cn(-c4ccccc4)nc3-c3ccc4ccccc4c3)C2)cc1Cl` (stereo not drawn) [Compound 4e, 5-(3,4-Dichlorophenyl)-3′-naphthalen-2-yl-2,1′-diphenyl-3,4-dihydro-2H,1’H-[3,4′]-bipyrazole], in assay [1], the “Superoxide IC50” value is given as 130.19 ± 1.1 µg/mL. On Soybean 15-LOX enzyme, this compound returned an IC50 of 3530 ± 70 nM.
The matching figures for `COc1ccc(C2=NOC(c3cn(-c4ccccc4)nc3-c3ccc4ccccc4c3)C2)cc1` (stereo not drawn) [Compound 5b, 3-(4-Methoxyphenyl)-5-(3-naphthalen-2-yl-1-phenyl-1H-pyrazol-4-yl)-4,5-dihydro isoxazole]: 101.8 ± 1.39 µg/mL and 4370 ± 90 nM.
Take `Cc1ccc(C2=NOC(c3cn(-c4ccccc4)nc3-c3ccc4ccccc4c3)C2)cc1` (stereo not drawn) [Compound 5c, 5-(3-Naphthalen-2-yl-1-phenyl-1H-pyrazol-4-yl)-3-p-tolyl-4,5-dihydroisoxazole]: in assay [1], the “Superoxide scavenging potency relative to ascorbic acid” value stood at 2.8 folds and the “Superoxide IC50” value worked out at 44.54 ± 1.44 µg/mL. In addition, on Soybean 15-LOX enzyme, the half-inhibitory concentration (IC50) was determined as 4230 ± 70 nM.
Turning to `NC(=S)N1N=C(c2ccccc2)CC1c1cn(-c2ccccc2)nc1-c1ccc2ccccc2c1` (stereo not drawn) [Compound 6a, 3′-Naphthalen-2-yl-5,1′-diphenyl-3,4-dihydro-1’H-[3,4′]bipyrazolyl-2-carbothioic acid amide], the “Superoxide IC50” value in assay [1] is 127.25 ± 1.47 µg/mL. Moreover, on Soybean 15-LOX enzyme, the “15-LOX inhibition potency relative to quercetin” value is recorded as 2.2 folds and the IC50 was 1500 ± 60 nM.
Take `Cc1ccc(C2=NN(C(N)=S)C(c3cn(-c4ccccc4)nc3-c3ccc4ccccc4c3)C2)cc1` (stereo not drawn) [Compound 6c, 3′-Naphthalen-2-yl-1′-phenyl-5-p-tolyl-3,4-dihydro-1’H-[3,4′]bipyrazolyl-2-carbo thioic acid amide]: the “Superoxide IC50” value in assay [1] worked out at 140.17 ± 1.52 µg/mL. For the same compound, on Soybean 15-LOX enzyme, the IC50 is 2100 ± 60 nM.
Regarding `NC(=S)N1N=C(c2ccc(Cl)c(Cl)c2)CC1c1cn(-c2ccccc2)nc1-c1ccc2ccccc2c1` (stereo not drawn) [Compound 6e], the “Superoxide IC50” value in assay [1] stood at 87.31 ± 1.58 µg/mL. In addition, at Soybean 15-LOX enzyme, the “15-LOX inhibition potency relative to quercetin” value worked out at 2.1 folds and inhibition was half-maximal at 1570 ± 30 nM (IC50).

Source of the values: article PMC7170299, “Design, synthesis, molecular modelling and biological evaluation of novel 3-(2-naphthyl)-1-phenyl-1H-pyrazole derivatives as potent antioxidants and 15-Lipoxygenase inhibitors” (Journal of Enzyme Inhibition and Medicinal Chemistry, 2020).
